According to paper PMC7571299 (ACS Pharmacology & Translational Science, 2020):
“Also recorded” adds a separate entry of the source. Like-named read-outs stand apart in the source and are kept apart here.

Columns and labels:
[1] = tested on: SARS-CoV-2 Isolate USA-WA1/2020; test: Vero E6 cell assay; assay type: cell-based
SARS-CoV-2 [2] = assay type: cell-based
Vero E6 cells = details: Vero E6, absence of virus, UTHSC
[3] = cited from earlier work
SARS-CoV-2 [4] = assay type: cell-based; remark: listed apart in the source
SARS-CoV-2 [5] = details: cited from earlier work; for Activity in NCATS CPE experiments: NCATS HTS

| Compound | Reduction of virus titer (SARS-CoV-2 [4]) | Activity in NCATS CPE experiments (SARS-CoV-2 [5]) | also measured |
| --- | --- | --- | --- |
| CCNCc1cc(Nc2ccnc3cc(Cl)ccc23)ccc1O [N-monodesethyl amodiaquine] |  |  | Antiviral activity compared to chloroquine [1]: almost inactive; EC50 (SARS-CoV-2 [2]): 4 µM; CC50 (Vero E6 cells): 5.9 µM; half-life [3]: ~20.8 days; half-life ([3]; human, in vivo): over 3 weeks |
| Nc1c(Br)cc(Br)cc1CN[C@H]1CC[C@H](O)CC1 [ambroxol] | inactive; also recorded: Neither primaquine nor ambroxol were found to reduce the virus titer | low activity |  |
| CCN(CC)Cc1cc(Nc2ccnc3cc(Cl)ccc23)ccc1O [amodiaquine] |  | high activity | half-life [3]: 0.12 days |
| CN(Cc1cc(Br)cc(Br)c1N)C1CCCCC1 [bromhexine] |  | found active | EC50 (SARS-CoV-2 [5]; read-out: EC50 in CPE assay, NCATS): 13.9 µM |
| CCN(CC)CCCC(C)Nc1ccnc2cc(Cl)ccc12 (centres unmarked) [chloroquine] | did not reduce the virus titer |  |  |
| O=C(OCC(O)CO)c1ccccc1Nc1ccnc2cc(Cl)ccc12 (centres unmarked) [glafenine] |  | low activity |  |
| CC(COc1ccccc1)NC(C)C(O)c1ccc(O)cc1 (centres unmarked) [isoxsuprine] |  | low activity |  |
| OC(CNCC(O)C1CCc2cc(F)ccc2O1)C1CCc2cc(F)ccc2O1 (centres unmarked) [nebivolol] | more than 1 log units | poor activity |  |
| Cc1[nH]c2ccccc2c1CCNCc1ccc(/C=C/C(=O)NO)cc1 [panobinostat] |  | low activity |  |
| CCCCc1nc2cc(/C=C/C(=O)NO)ccc2n1CCN(CC)CC [pracinostat] |  | low activity |  |
| COc1cc(NC(C)CCCN)c2ncccc2c1 (centres unmarked) [primaquine] | Neither primaquine nor ambroxol were found to reduce the virus titer |  | Antiviral activity in dose-response experiment in comparison with chloroquine [1]: no appreciable activity; Antiviral activity at the tested concentrations (SARS-CoV-2 [2]; UTHSC dose response): did not exhibit appreciable activity |
| CCC(CC)COC(=O)[C@H](C)N[P@](=O)(OC[C@H]1O[C@@](C#N)(c2ccc3c(N)ncnn23)[C@H](O)[C@@H]1O)Oc1ccccc1 [remdesivir] | 3–4 log units |  |  |
| O=C(CCCCCCC(=O)Nc1ccccc1)NO [vorinostat] |  | low activity |  |
| OCCN1CCN(CC/C=C2/c3ccccc3Sc3ccc(Cl)cc32)CC1 [zuclopenthixol] | more than 1 log unit |  | Peak of activity (SARS-CoV-2 [2]; 8.33 μM, UTHSC): 80%; bioavailability ([3]; listed as ZPX): about 50% |
